Starred links: 1 amine or outer side, 2 acyl side, 3 side chain; linkers in the order of their positions; H or OH if unused. Positions of bridges follow the written chain, without caps; N, C: chain ends. Non-standard residues stand in square brackets, D forms with d. Residues, ends and D or L forms follow the SMILES beside them. No end group written: not given here. *: point of attachment. Perfluorobiphenyl(4,4') = Fc1c(F)c([*:1])c(F)c(F)c1-c1c(F)c(F)c([*:2])c(F)c1F; Biotin = O=C1N[C@H]2[C@H](CS[C@H]2CCCCC(=O)*)N1; Phe(F5) = N[C@@H](Cc1c(F)c(F)c(F)c(F)c1F)C(=O)O

These results are taken from patent US20170246311A1, “PEPTIDES FOR BINDING ALTERNATIVELY ACTIVATED MACROPHAGES” (University of Washington, priority 2016, published 2017).

Data set [1] can be described thus: Solubility of cyclized peptide analogs.
The test system of another data set is macrophages. The format is cell-based, mouse.
Data set [2] deals with M2pep receptor on M2 macrophages (identity unknown) (mouse). In words: flow cytometry on murine M2 macrophages, biotinylated peptide + streptavidin-FITC; apparent KD from half-maximal MFI.
For data set [3] the target is unchanged. In words: flow cytometry binding curves on murine M2 macrophages.
Data set [4] shares this target. In words: flow cytometry on murine M2 macrophages; apparent KD.

As for `CC(C)[C@@H]1NC(=O)CNC(=O)[C@H](Cc2c[nH]c3ccccc23)NC(=O)[C@@H]2CCCN2C(=O)[C@H](CC(=O)O)NC(=O)[C@H](CCC(N)=O)NC(=O)[C@H](CCC(=O)O)NC(=O)[C@H](Cc2ccc(O)cc2)NC(=O)CNC(=O)[C@H](Cc2c(F)c(F)c(F)c(F)c2F)NC(=O)[C@H](Cc2c(F)c(F)c(F)c(F)c2F)NC(=O)[C@@H](N)CSSC[C@@H](C(=O)N[C@H](CCCCN)C(=O)N[C@H](CCCCN)C(=O)N[C@H](CCCCN)C(=O)N[C@@H](CCCCNC(=O)CCCC[C@@H]2SC[C@@H]3NC(=O)N[C@@H]32)C(N)=O)NC(=O)CNC(=O)[C@H](Cc2ccc(O)cc2)NC(=O)[C@H](Cc2c[nH]c3ccccc23)NC(=O)[C@H](Cc2ccc(O)cc2)NC(=O)[C@H](CCCNC(=N)N)NC1=O` [F(F5)F(F5)-cyclized M2pep(RY)Biotin] (H-C[Phe(F5)][Phe(F5)]GYEQDPWGVRYWYGC[dK][dK][dK]K(Biotin)-NH2; disulfide 1-18), in data set [1], the “solubility (in words)” value was “less soluble than the FF-cyclized analog”. For the same molecule, in the data set with macrophages, the toxicity to macrophages result is recorded as “very toxic to macrophages even at low micromolar concentrations”.
Consider `CC(C)[C@@H]1NC(=O)CNC(=O)[C@H](Cc2c[nH]c3ccccc23)NC(=O)[C@@H]2CCCN2C(=O)[C@H](CC(=O)O)NC(=O)[C@H](CCC(N)=O)NC(=O)[C@H](CCC(=O)O)NC(=O)[C@H](Cc2ccc(O)cc2)NC(=O)CNC(=O)[C@H](Cc2ccccc2)NC(=O)[C@H](Cc2ccccc2)NC(=O)[C@@H](N)CSSC[C@@H](C(=O)N[C@H](CCCCN)C(=O)N[C@H](CCCCN)C(=O)N[C@H](CCCCN)C(=O)N[C@@H](CCCCNC(=O)CCCC[C@@H]2SC[C@@H]3NC(=O)N[C@@H]32)C(N)=O)NC(=O)CNC(=O)[C@H](Cc2ccc(O)cc2)NC(=O)[C@H](Cc2c[nH]c3ccccc23)NC(=O)[C@H](Cc2ccc(O)cc2)NC(=O)[C@H](CCCNC(=N)N)NC1=O` [FF-cyclized M2pep(RY)Biotin] (H-CFFGYEQDPWGVRYWYGC[dK][dK][dK]K(Biotin)-NH2; disulfide 1-18), for which the “solubility (in words)” value in data set [1] is on record as “significantly reduces solubility”.
For `CC(C)[C@@H]1NC(=O)CNC(=O)[C@H](Cc2c[nH]c3ccccc23)NC(=O)[C@@H]2CCCN2C(=O)[C@H](CC(=O)O)NC(=O)[C@H](CCC(N)=O)NC(=O)[C@H](CCC(=O)O)NC(=O)[C@H](Cc2ccc(O)cc2)NC(=O)CNC(=O)[C@@H](N)CSc2c(F)c(F)c(c(F)c2F)-c2c(F)c(F)c(c(F)c2F)SC[C@@H](C(=O)N[C@H](CCCCN)C(=O)N[C@H](CCCCN)C(=O)N[C@H](CCCCN)C(=O)N[C@@H](CCCCNC(=O)CCCC[C@@H]2SC[C@@H]3NC(=O)N[C@@H]32)C(N)=O)NC(=O)CNC(=O)[C@H](Cc2ccc(O)cc2)NC(=O)[C@H](Cc2c[nH]c3ccccc23)NC(=O)[C@H](Cc2ccc(O)cc2)NC(=O)[C@H](CCCNC(=N)N)NC1=O` [DFBP-cyclized M2pep(RY)Biotin] (H-CGYEQDPWGVRYWYGC[dK][dK][dK]K(Biotin)-NH2; linker 1-16 via Perfluorobiphenyl(4,4')), in data set [1], the “solubility (in words)” value is given as “higher solubility than FF-cyclized M2pep(RY)Biotin”.
As for DFBP-cyclized M2pep(RY)Biotin (peptide), the Kd in data set [2] came to 2.03 µM. The fold enhancement of binding activity against DFBP-cyclized M2pepBiotin in data set [3] was determined as 4 fold.
Consider YEQDPWGVKWWYGGGSKKK(Biotin)-NH2 [M2pepBiotin], for which, in data set [4], the Kd is 220 µM.
